Test results published in ChEMBL document CHEMBL3727350, “Agents and methods for treating ischemic and other diseases” (2014).
The source made the active and inactive calls. The rule behind the calls is not given here.

Tests used:
H9c2 [1] = assay: Toxicity against rat H9c2 cells at 5 uM; format: cell-based; conditions: h9c2, 5 µM
[2] = Inhibition of cell proliferation of mouse NIH/3T3 cells at 1.25 to 10 uM incubated for 72 hrs by propidium iodide staining assay; format: cell-based; conditions: nih3t3, 72 h
[3] = target: Transient receptor potential cation channel subfamily M member 7 (Mus musculus) (UniProt Q923J1); assay: Inhibition of TRPM7 in mouse mouse primary cortical neurons exposed to 2 hrs oxygen glucose deprivation condition assessed as reduction in TRPM7-mediated anoxic cell death measured after 20 hrs by propidium iodide uptake assay; format: cell-based; conditions: Cerebral cortex neuron
Sequence of Transient receptor potential cation channel subfamily M member 7 (Mus musculus) (Q923J1 whole entry): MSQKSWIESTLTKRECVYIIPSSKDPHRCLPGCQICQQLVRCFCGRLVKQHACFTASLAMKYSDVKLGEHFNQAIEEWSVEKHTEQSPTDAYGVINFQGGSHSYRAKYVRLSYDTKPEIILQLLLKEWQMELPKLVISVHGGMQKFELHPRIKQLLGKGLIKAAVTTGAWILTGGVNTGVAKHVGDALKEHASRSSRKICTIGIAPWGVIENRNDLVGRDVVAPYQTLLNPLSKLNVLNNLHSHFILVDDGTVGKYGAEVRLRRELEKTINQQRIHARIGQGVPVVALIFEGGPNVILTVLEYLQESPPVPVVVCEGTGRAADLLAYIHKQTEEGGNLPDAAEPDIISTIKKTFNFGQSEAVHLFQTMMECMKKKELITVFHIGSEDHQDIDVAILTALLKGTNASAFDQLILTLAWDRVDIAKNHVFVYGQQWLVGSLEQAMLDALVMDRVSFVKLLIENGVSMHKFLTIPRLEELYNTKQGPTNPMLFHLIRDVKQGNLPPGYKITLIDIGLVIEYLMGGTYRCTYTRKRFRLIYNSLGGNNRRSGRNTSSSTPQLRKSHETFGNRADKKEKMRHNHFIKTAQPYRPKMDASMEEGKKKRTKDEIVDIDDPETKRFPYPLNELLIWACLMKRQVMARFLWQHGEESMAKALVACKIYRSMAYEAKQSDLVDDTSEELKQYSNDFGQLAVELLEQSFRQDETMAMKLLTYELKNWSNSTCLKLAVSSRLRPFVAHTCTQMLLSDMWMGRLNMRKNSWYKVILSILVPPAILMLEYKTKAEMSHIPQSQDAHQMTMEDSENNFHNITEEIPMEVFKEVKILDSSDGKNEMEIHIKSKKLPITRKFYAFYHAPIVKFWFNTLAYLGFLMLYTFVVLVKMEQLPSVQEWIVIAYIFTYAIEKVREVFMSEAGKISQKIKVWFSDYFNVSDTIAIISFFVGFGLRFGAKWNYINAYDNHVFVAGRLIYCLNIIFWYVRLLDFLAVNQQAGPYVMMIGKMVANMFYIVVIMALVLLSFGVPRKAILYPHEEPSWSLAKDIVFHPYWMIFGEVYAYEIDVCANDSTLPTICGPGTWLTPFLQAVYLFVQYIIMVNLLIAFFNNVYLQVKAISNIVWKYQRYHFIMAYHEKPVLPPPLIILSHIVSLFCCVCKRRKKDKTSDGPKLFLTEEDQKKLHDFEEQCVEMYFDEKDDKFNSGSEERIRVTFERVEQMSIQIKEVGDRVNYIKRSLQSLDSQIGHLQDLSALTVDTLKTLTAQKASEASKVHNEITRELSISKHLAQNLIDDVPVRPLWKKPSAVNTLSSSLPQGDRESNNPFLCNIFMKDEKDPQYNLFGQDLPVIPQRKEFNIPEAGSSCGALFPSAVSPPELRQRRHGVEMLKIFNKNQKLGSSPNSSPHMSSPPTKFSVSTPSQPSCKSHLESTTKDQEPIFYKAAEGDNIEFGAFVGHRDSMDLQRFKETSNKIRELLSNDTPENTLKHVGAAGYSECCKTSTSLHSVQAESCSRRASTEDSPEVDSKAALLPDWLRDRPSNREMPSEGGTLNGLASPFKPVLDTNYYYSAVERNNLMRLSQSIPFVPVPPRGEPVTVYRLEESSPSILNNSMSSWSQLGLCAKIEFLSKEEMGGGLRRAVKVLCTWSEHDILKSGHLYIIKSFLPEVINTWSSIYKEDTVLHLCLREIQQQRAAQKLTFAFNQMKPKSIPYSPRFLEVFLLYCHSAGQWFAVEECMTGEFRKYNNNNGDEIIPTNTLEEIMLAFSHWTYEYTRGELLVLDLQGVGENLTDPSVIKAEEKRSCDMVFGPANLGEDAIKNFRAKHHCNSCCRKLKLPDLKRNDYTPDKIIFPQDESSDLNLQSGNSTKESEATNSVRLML

MDA-MB-231 = assay: Inhibition of cell proliferation of human MDA-MB-231 cells at 1.25 to 10 uM incubated for 72 hrs by SRB assay; format: functional, cell-based
B16-F10 = assay: Inhibition of cell proliferation of mouse B16F10 cells at 1.25 to 10 uM incubated for 72 hrs by SRB assay; format: functional, cell-based
[4] = Inhibition of cell proliferation of human WERI cells at 10 uM incubated for 48 to 96 hrs; format: functional
SW13 [5] = assay: Inhibition of cell proliferation of human SW13 cells at 1.25 to 10 uM incubated for 72 hrs by SRB assay; format: functional, cell-based
[6] = target: Transient receptor potential cation channel subfamily M member 7 (Mus musculus) (UniProt Q923J1); assay: Inhibition of TRPM7 in mouse primary neuronal cells exposed to oxygen glucose deprivation condition for 1 to 3 hrs assessed as reduction in TRPM7-mediated anoxic cell death dosed after oxygen glucose deprivation condition by propidium iodide uptake assay; conditions: Primary neuron
[7] = target: Transient receptor potential cation channel subfamily M member 7 (Mus musculus) (UniProt Q923J1); assay: Inhibition of Tet-induced Flag-tagged mouse TRPM7 expressed in HEK293 cells assessed as reduction in channel currents at 0.3 to 30 uM by whole cell patch clamp assay; format: cell-based
B16-F1 = assay: Inhibition of cell proliferation of mouse B16-F1 cells at 1.25 to 10 uM incubated for 72 hrs by SRB assay; format: functional, cell-based
[8] = target: Transient receptor potential cation channel subfamily M member 7 (Mus musculus) (UniProt Q923J1); assay: Inhibition of TRPM7 in mouse primary neuronal cells exposed to oxygen glucose deprivation condition for 1 to 3 hrs assessed as reduction in TRPM7-mediated anoxic cell death dosed before oxygen glucose deprivation condition by propidium iodide uptake assay; conditions: Primary neuron
HeLa = assay: Inhibition of cell proliferation of human HeLa cells at 1.25 to 10 uM incubated for 48 hrs by BrdU incorporation assay; format: functional, cell-based
SW13 [9] = assay: Inhibition of cell proliferation of human SW13 cells at 1.25 to 10 uM incubated for 48 hrs by BrdU incorporation assay; format: functional, cell-based
[10] = target: Transient receptor potential cation channel subfamily M member 7 (Mus musculus) (UniProt Q923J1); assay: Inhibition of Tet-induced Flag-tagged mouse TRPM7 expressed in HEK293 cells assessed as inhibition of channel-mediated cell death in presence of Mg2+ incubated for 24 to 48 hrs by propidium iodide uptake assay; format: cell-based; set-up: concentration or dose not given beside the values; conditions: concentration not given here
H9c2 [11] = assay: Toxicity against rat H9c2 cells at 10 uM; format: cell-based; conditions: h9c2, 10 µM
[12] = target: Transient receptor potential cation channel subfamily M member 7 (Rattus norvegicus) (UniProt Q925B3); assay: Inhibition of TRPM7 in rat H9C2 cells assessed as reduction in channel currents at 0.3 to 30 uM by whole cell patch clamp assay; format: cell-based
Sequence of Transient receptor potential cation channel subfamily M member 7 (Rattus norvegicus) (Q925B3 whole entry): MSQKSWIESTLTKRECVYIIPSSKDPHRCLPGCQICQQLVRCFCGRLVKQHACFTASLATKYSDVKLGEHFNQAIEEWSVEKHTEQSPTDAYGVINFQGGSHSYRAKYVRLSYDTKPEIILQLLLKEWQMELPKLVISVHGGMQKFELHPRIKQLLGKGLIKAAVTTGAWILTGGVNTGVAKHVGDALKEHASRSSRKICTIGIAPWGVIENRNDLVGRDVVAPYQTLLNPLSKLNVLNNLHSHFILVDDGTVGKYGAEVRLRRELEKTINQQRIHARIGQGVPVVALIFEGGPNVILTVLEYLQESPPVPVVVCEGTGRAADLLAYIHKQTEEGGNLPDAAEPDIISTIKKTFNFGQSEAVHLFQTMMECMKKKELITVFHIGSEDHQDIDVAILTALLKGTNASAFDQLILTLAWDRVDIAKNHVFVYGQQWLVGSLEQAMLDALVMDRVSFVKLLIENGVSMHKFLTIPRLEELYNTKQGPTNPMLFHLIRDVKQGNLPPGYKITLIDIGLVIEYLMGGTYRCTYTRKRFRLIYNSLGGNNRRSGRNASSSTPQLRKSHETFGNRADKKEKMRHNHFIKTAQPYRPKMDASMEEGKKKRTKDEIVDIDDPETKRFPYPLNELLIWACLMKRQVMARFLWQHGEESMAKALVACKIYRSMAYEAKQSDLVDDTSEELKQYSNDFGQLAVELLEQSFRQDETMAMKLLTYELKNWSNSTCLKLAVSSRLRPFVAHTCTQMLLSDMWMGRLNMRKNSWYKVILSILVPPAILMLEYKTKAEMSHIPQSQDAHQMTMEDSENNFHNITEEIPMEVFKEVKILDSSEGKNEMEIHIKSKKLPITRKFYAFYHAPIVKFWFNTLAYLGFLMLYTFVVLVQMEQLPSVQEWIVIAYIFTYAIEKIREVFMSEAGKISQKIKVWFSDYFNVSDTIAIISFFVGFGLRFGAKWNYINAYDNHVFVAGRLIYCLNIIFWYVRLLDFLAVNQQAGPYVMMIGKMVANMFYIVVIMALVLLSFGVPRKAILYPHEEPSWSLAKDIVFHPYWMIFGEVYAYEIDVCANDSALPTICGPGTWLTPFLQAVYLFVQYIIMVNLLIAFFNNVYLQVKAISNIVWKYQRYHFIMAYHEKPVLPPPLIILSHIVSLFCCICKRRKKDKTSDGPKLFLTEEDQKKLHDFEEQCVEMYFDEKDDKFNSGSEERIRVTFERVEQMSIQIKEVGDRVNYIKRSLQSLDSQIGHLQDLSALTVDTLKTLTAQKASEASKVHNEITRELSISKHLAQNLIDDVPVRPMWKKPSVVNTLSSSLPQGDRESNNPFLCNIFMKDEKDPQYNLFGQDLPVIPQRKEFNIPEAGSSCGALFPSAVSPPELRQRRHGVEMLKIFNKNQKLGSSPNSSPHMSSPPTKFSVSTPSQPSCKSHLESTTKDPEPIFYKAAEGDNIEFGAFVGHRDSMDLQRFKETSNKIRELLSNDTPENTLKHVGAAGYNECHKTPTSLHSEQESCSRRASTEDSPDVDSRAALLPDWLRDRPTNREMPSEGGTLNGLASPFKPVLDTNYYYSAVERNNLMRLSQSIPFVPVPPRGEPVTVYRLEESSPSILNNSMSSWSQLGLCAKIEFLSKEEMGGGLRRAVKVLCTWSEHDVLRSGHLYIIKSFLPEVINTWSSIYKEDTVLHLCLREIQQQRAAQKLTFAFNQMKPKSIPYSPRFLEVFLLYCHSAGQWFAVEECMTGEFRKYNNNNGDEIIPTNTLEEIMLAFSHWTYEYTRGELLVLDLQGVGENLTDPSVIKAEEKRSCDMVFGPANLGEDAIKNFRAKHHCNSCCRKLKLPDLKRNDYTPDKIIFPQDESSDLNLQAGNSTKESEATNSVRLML

- inhibition [7]: Active
- inhibition [12]: Active
SMILES: Cc1ccc(-n2c(-c3ccc(Cl)c(C)c3)csc2=N)c(C)c1.Cl
- Activity (H9c2 [1]): Non-toxic
- Activity [2]: Non-toxic
- inhibition [3]: Active
- inhibition (MDA-MB-231): Active
- inhibition (B16-F10): Active
- inhibition at 10 µM [4]: > 20%
- inhibition (SW13 [5]): Active
- inhibition [6]: Active
- inhibition (B16-F1): Active
- inhibition [8]: Active
- inhibition (HeLa): Active
- inhibition (SW13 [9]): Active
- inhibition [10]: 80%
- Activity (H9c2 [11]): Toxic
